Results on 16 compounds are retold here after patent US20100285145A1, “GPR 119 MODULATORS” (PFIZER INC, priority 2009, published 2010).

“And” between values parts separate entries of the source, which are not always exact repeats. Equal entries are not always repeated.

The target in this assay is T1, human GPR119 (Homo sapiens, UniProt Q8TDV5).
T1 sequence (Q8TDV5 1-335): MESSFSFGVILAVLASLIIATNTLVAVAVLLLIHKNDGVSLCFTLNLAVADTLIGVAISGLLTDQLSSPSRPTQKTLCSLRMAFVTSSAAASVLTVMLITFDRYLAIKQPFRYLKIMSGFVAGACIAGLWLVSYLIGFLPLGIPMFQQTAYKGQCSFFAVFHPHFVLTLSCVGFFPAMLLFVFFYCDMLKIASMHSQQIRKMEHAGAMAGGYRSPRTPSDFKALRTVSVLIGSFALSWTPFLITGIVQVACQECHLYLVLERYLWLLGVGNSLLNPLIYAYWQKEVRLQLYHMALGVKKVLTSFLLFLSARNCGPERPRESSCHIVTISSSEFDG
Kind of assay: GPR119 radioligand binding assay ([3H]-Compound A or B, membranes of HEK 293FT cells expressing hGPR119). The note with it: calculated from IC50 with Cheng-Prusoff; each line a separate determination. Set-up: host or cells: HEK293-CRE beta-lactamase. The protocol:
HEK 293FT cells (Invitrogen, Carlsbad, Calif.) were grown in a shake flask in 293Freestyle medium (Invitrogen) supplemented with 50 microg/mL neomycin and 10 mM HEPES (37C, 8% carbon dioxide, shaking). The cells were centrifuged gently (approximately 500×g, 10 minutes) and the pellet resuspended in a mixture of Dulbecco's PBS (minus Mg++/−Ca++) supplemented with 18% fetal bovine serum (Sigma Aldrich) and P1 virus such that the multiplicity of infection (MOI) was 10 and the final cell density was 1.3×10^6/mL (total volume 2.5 liters). The cells were transferred to a 5 liter Wave Bioreactor Wavebag (Wave Technologies, Mass.) and incubated for 4 hours at 27 degrees Celsius (17 rocks/min, 7 degrees platform angle); at the end of the incubation period, an equal volume (2.5 liters) of 293Freestyle medium supplemented with 30 mM sodium butyrate (Sigma Aldrich) was added (final concentration=15 mM), and the cells were grown for 20 hours (37 degrees Celsius, 8% CO2 [0.2 liters/min}, 25 rocks/minute, 7 degrees platform angle). Cells were harvested via centrifugation (3,000×g, 10 minutes), washed once on DPBS (minus Ca++/Mg++), resuspended in 0.25M sucrose, 25 mM HEPES, 0.5 mM EDTA, pH 7.4 and frozen at −80 degrees Celsius.
The frozen cells were thawed on ice and centrifuged at 700×g (1400 rpm) for 10 minutes at 4 degrees Celsius. The cell pellet was resuspended in 20 mL phosphate-buffered saline, and centrifuged at 1400 rpm for 10 minutes. The cell pellet was then resuspended in homogenization buffer (10 mM HEPES (Gibco #15630), pH 7.5, 1 mM EDTA (BioSolutions, #BIO260-15), 1 mM EGTA (Sigma, #E-4378), 0.01 mg/mL benzamidine (Sigma #B 6506), 0.01 mg/mL bacitracin (Sigma #B 0125), 0.005 mg/mL leupeptin (Sigma #L 8511), 0.005 mg/mL aprotinin (Sigma #A 1153)) and incubated on ice for 10 minutes. Cells were then lysed with 15 gentle strokes of a tight-fitting glass Dounce homogenizer. The homogenate was centrifuged at 1000×g (2200 rpm) for 10 minutes at 4 degrees Celsius. The supernatant was transferred into fresh centrifuge tubes on ice. The cell pellet was resuspended in homogenization buffer, and centrifuged again at 1000×g (2200 rpm) for 10 minutes at 4 degrees Celsius after which the supernatant was removed and the pellet resuspended in homogenization buffer. This process was repeated a third time, after which the supernatants were combined, Benzonase (Novagen # 71206) and MgCl2 (Fluka #63020) were added to final concentrations of 1 U/mL and 6 mM, respectively, and incubated on ice for one hour. The solution was then centrifuged at 25,000×g (15000 rpm) for 20 minutes at 4 degrees Celsius, the supernatant was discarded, and the pellet was resuspended in fresh homogenization buffer (minus Benzonase and MgCl2). After repeating the 25,000×g centrifugation step, the final membrane pellet was resuspended in homogenization buffer and frozen at −80 degrees Celsius. The protein concentration was determined using the Pierce BCA protein assay kit (Pierce reagents A #23223 and B #23224).
Test compounds were serially diluted in 100% DMSO (J. T. Baker #922401). 2 microL of each dilution was added to appropriate wells of a 96-well plate (each concentration in triplicate). Unlabeled Compound A (or Compound B), at a final concentration of 10 microM, was used to determine non-specific binding. [^3H]-Compound A (or [^3H]-Compound B) was diluted in binding buffer (50 mM Tris-HCl, pH 7.5, (Sigma #T7443), 10 mM MgCl2 (Fluka 63020), 1 mM EDTA (BioSolutions #BIO260-15), 0.15% bovine serum albumin (Sigma #A7511), 0.01 mg/mL benzamidine (Sigma #B 6506), 0.01 mg/mL bacitracin (Sigma #B 0125), 0.005 mg/mL leupeptin (Sigma #L 8511), 0.005 mg/mL aprotinin (Sigma #A 1153)) to a concentration of 60 nM, and 100 microL added to all wells of 96-well plate (Nalge Nunc # 267245). […]
Usually Ki stands for a dissociation constant, usually derived from enzyme kinetics or from competition with a known ligand. For `Cc1c(O[C@@H]2[C@@H]3COC[C@H]2CN(C(=O)OC(C)C)C3)ncnc1N1CCc2ncccc21` [Example 29, Isopropyl (9-syn)-9-{[6-(2,3-dihydro-1H-pyrrolo[3,2-b]pyridin-1-yl)-5-methylpyrimidin-4-yl]oxy}-3-oxa-7-azabicyclo[3.3.1]nonane-7-carboxylate], the inhibitory constant (Ki) is 73.8 nM.
The value for `CC(C)OC(=O)N1CCC(Oc2cc(N3CCc4cc(C#N)ccc43)ncn2)CC1` [Example 10, Isopropyl 4-{[6-(5-cyano-2,3-dihydro-1H-indol-1-yl)pyrimidin-4-yl]oxy}piperidine-1-carboxylate] was 232 nM.
The value for `Cc1c(O[C@H]2CCN(C(=O)OC3(C)CC3)C[C@H]2F)ncnc1N1CCc2ncccc21` [Example 17, 1-Methylcyclopropyl (3R,4S)-4-{[6-(2,3-dihydro-1H-pyrrolo[3,2-b]pyridin-1-yl)-5-methylpyrimidin-4-yl]oxy}-3-fluoropiperidine-1-carboxylate] was 2 nM and 5.04 nM and 2.43 nM and 4.23 nM and 1.7 nM and 5.67 nM and 13.8 nM and 11.9 nM and 2.45 nM and 6.9 nM; that for `Cc1c(O[C@H]2[C@@H]3COC[C@H]2CN(C(=O)OC2(C)CC2)C3)ncnc1N1CCc2ncccc21` [Example 25, 1-Methylcyclopropyl (9-anti)-9-{[6-(2,3-dihydro-1H-pyrrolo[3,2-b]pyridin-1-yl)-5-methylpyrimidin-4-yl]oxy}-3-oxa-7-azabicyclo[3.3.1]nonane-7-carboxylate] was 39 nM and 34.7 nM; that for `CC(C)OC(=O)N1CCC(Oc2cc(N3CCc4cc(C(=O)N(C)C)ccc43)ncn2)CC1` [Example 9, 4-[6-(5-Dimethylcarbamoyl-2,3-dihydroindol-1-yl)-pyrimidin-4-yloxy]-piperidine-1-carboxylic acid isopropyl ester] was 58.8 nM and 45.2 nM.
As for `CC(C)OC(=O)N1CCC(Oc2cc(N3CCc4ncccc43)ncn2)CC1` [Example 12, Isopropyl 4-{[6-(2,3-dihydro-1H-pyrrolo[3,2-b]pyridin-1-yl)pyrimidin-4-yl]oxy}piperidine-1-carboxylate], the Ki was 6100 nM and 1350 nM and 2910 nM.
For the compound `Cc1c(O[C@H]2[C@@H]3COC[C@H]2CN(C(=O)OC2(C)CCC2)C3)ncnc1N1CCc2ncccc21` [Example 27, 1-Methylcyclobutyl (9-anti)-9-{[6-(2,3-dihydro-1H-pyrrolo[3,2-b]pyridin-1-yl)-5-methylpyrimidin-4-yl]oxy}-3-oxa-7-azabicyclo[3.3.1]nonane-7-carboxylate], the Ki was 20.8 nM and 13.8 nM.
The value for `Cc1c(O[C@H]2[C@@H]3COC[C@H]2CN(C(=O)OC(C)C)C3)ncnc1N1CCc2ncccc21` [Example 22, Isopropyl (9-anti)-9-{[6-(2,3-dihydro-1H-pyrrolo[3,2-b]pyridin-1-yl)-5-methylpyrimidin-4-yl]oxy}-3-oxa-7-azabicyclo[3.3.1]nonane-7-carboxylate] was 66.6 nM and 79.3 nM and 53 nM and 96.4 nM.
The value for `Cc1c(OC2CCN(C(=O)OC(C)C)CC2)ncnc1N1CCc2ncccc21` [Example 13, Isopropyl 4-{[6-(2,3-dihydro-1H-pyrrolo[3,2-b]pyridin-1-yl)-5-methylpyrimidin-4-yl]oxy}-piperidine-1-carboxylate] was 55.3 nM and 16 nM and 91.1 nM and 23.8 nM; that for `CC(C)OC(=O)N1C[C@H]2COC[C@@H](C1)[C@H]2Oc1cc(N2CCc3cc(S(C)(=O)=O)ccc32)ncn1` [Example 1, Isopropyl 9-anti-({6-[5-(methylsulfonyl)-2,3-dihydro-1H-indol-1-yl]pyrimidin-4-yl}oxy)-3-oxa-7-azabicyclo[3.3.1]nonane-7-carboxylate] was 219 nM and 35.5 nM.
Under `Cc1c(OC2CCN(C(=O)OC(C)C)CC2)ncnc1N1CCc2cc(S(C)(=O)=O)ccc21` [Example 8, Isopropyl 4-({5-methyl-6-[5-(methylsulfonyl)-2,3-dihydro-1H-indol-1-yl]pyrimidin-4-yl}oxy)piperidine-1-carboxylate] stands 273 nM and 338 nM.
On to `CC(C)OC(=O)N1CCC(Oc2cc(N3CCc4cc(S(=O)(=O)CCO)ccc43)ncn2)CC1` [Example 11, Isopropyl 4-[(6-{5-[(2-hydroxyethyl)sulfonyl]-2,3-dihydro-1H-indol-1-yl}pyrimidin-4-yl)oxy]piperidine-1-carboxylate], for which the Ki is 72.8 nM.
Consider `Cc1c(O[C@H]2CCN(C(=O)OC(C)(C)C)C[C@H]2F)ncnc1N1CCc2ncccc21` (racemic) [Example 16, tert-Butyl (3R,4S)-4-{[6-(2,3-dihydro-1H-pyrrolo[3,2-b]pyridin-1-yl)-5-methylpyrimidin-4-yl]oxy}-3-fluoropiperidine-1-carboxylate (racemic)], for which the Ki is 1.48 nM and 2.12 nM.
Under `CC(C)OC(=O)N1CCC(Oc2ncnc(N3CCc4cc(S(C)(=O)=O)ccc43)c2C#N)CC1` [Example 6, Isopropyl 4-({5-cyano-6-[5-(methylsulfonyl)-2,3-dihydro-1H-indol-1-yl]pyrimidin-4-yl}oxy)piperidine-1-carboxylate] stands 1.87 nM and 5.02 nM; under `CC(C)(C)OC(=O)N1CCC(Oc2cc(N3CCc4cc(S(C)(=O)=O)ccc43)ncn2)C(F)C1` (racemic) [Example 15, tert-Butyl 3-fluoro-4-({6-[5-(methylsulfonyl)-2,3-dihydro-1H-indol-1-yl]pyrimidin-4-yl}oxy)piperidine-1-carboxylate], 1.72 nM and 6.77 nM and 1.6 nM; under `CCC1(OC(=O)N2C[C@H]3COC[C@@H](C2)[C@H]3Oc2ncnc(N3CCc4ncccc43)c2C)CC1` [Example 26, 1-Ethylcyclopropyl (9-anti)-9-{[6-(2,3-dihydro-1H-pyrrolo-[3,2-b]pyridin-1-yl)-5-methylpyrimidin-4-yl]oxy}-3-oxa-7-azabicyclo[3.3.1]nonane-7-carboxylate], 40.5 nM and 22.2 nM.
